Article PMC10165273, “Itch receptor MRGPRX4 interacts with the receptor activity–modifying proteins” (The Journal of Biological Chemistry, 2023)
Several values for one entry are separate records, joined by “and”; a condition that tells them apart may be missing. Identical values can stand only once. Like-named read-outs stand apart in the source and are kept apart here.

Experiments:
[1] = test system: mock-transfected HEK293T cells; test: IP1 accumulation, mock-transfected cells; format: cell-based, human; parameters: IP1 Basal / IP1 span / IP1 Emax / IP1 accumulation, dose-response (Figure 1a) / IP1 accumulation with YM (Figure 1c) / IP1 accumulation: unit not given here; conditions: for IP1 accumulation, dose-response (Figure 1a): pcDNA (mock), individual replicates; for IP1 accumulation: mock, Fig S3d-f
Experimental: (§1) HEK293T cells were transfected with 1 pg/cell of MRGPRX4 DNA, and the amount of DNA was kept constant at 2 pg/cell with pcDNA3.1(+) empty vector, unless otherwise specified. Twenty four hours after transfection, IP1 assay was performed as previously described ([51]). When applicable, cells were treated with 1 μM YM254890 (YM) or different concentrations of U73122 for 1 h prior to addition of agonist or buffer. After incubation for 2 h, HTRF reagents and IP1 calibration standards were added and incubated for 2 h in the dark at room temperature. Time-resolved fluorescence signals were read on the BioTek Synergy NEO-TRF Hybrid multi-mode reader (BioTek Instruments). All data were carried out in three independent experiments with three technical replicate each.
Validation of CALCRL constructs was assayed by cotransfecting HEK293T cells with different tagged versions of CALCRL alone or with each RAMP and with the promiscuous Gqs5 Gq chimera protein, at a respective DNA ratio of 1:1:0.5. Gqs5 is an engineered Gq protein containing the last five amino acid residues of Gs, which allows Gs-coupled GPCRs to signal through Gq downstream signaling pathways ([55]). The homogenous transfection method described above was used for all DNA mixes. CALCRL:RAMP2:Gqs5-transfected cells served as positive control for RAMP functionality.
(§2) Data reduction, standard calibration, and transformation of HTRF data were performed as previously described ([51]). Normalized IP1 values were calculated relative to the unstimulated mock-transfected cells (set to 0%) and fully stimulated MRGPRX4 (alone if applicable) (set to 100%).

MRGPRX4 + RAMP2 = biological target: T1, MRGPRX4 + RAMP2 (Homo sapiens, UniProt Q96LA9); test: IP1 accumulation, MRGPRX4 coexpressed with RAMP2; format: cell-based; parameters: key to response to agonist, X4:ramp2.I:2: % IP1: mock-transfected unstimulated = 0%, fully stimulated MRGPRX4 = 100%; key to IP1 Basal / response to agonist, X4:ramp2.I:0.25 / response to agonist, X4:ramp2.I:0.5 / response to agonist, X4:ramp2.I:1: % IP1; unstimulated mock = 0%, fully stimulated MRGPRX4 = 100%; conditions: for activation at 20 µM / activation at 4 µM / activation at 0.8 µM / activation at […] / activation at 0.032 µM / activation at 100 µM: 2 h, Fig S3e, read-out: IP1 accumulation; for activation at 20 µM: log [DCA] (M) -4.69897; for activation at 4 µM: log [DCA] (M) -5.39794; for activation at 0.8 µM: log [DCA] (M) -6.09691; for activation at […]: log [DCA] (M) -6.79588; for activation at 0.032 µM: log [DCA] (M) -7.49485; for activation at 100 µM: log [DCA] (M) -4; for IP1 Basal / IP1 span (Emax minus basal) / Emax: normalized per agonist; for Emax: read-out: IP1 Emax
T1 construct: expressed in transfected cells; host or cells: HEK293T
T1 sequence (Q96LA9 whole entry): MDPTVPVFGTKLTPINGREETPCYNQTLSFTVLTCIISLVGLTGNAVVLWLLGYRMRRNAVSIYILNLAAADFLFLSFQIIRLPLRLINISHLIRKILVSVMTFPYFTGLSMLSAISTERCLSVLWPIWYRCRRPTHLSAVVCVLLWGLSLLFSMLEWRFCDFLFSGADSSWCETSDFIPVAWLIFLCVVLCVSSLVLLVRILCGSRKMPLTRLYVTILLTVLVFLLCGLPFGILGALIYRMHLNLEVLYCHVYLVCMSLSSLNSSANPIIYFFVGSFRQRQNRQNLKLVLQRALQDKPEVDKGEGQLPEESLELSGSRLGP
Experimental: as §1
For RAMP DNA titration assay, HEK293T cells were cotransfected with a constant amount of 1 pg/cell of FLAG-MRGPRX4-GFP10-1D4 to which a serial dilution of 1, 0.75, 0.5, 0.25, or 0 pg/cell of each HA-RAMP-OLLAS was added. For a homogenous transfection of MRGPRX4, a master mix of MRGPRX4 DNA was made prior to addition of the RAMP DNA. […]
as §2

[2] = Mock, MRGPRX4 construct comparison (Fig. S4B,C-F)
[3] = MRGPRX4 + RAMP2 0.25 pg (Fig. S3)
[4] = MRGPRX4 + RAMP2 0.5 pg (Fig. S3)

## C[C@H](CCC(=O)O)[C@H]1CC[C@H]2[C@@H]3CC[C@@H]4C[C@H](O)CC[C@]4(C)[C@H]3C[C@H](O)[C@]12C [DCA, deoxycholic acid]
[1]; Homo sapiens, HEK-293T, Mock, MRGPRX4 construct comparison (Fig. S4B,C-F)
  Emax: 0.236%
[1]; [2]
  IP1 Basal: 2.330
  IP1 span: -2.094
[1]; log [agonist] (M) -4
  IP1 accumulation, dose-response (Figure 1a): 0.2103 and 0.3669 and 0.293 and -0.07837 and 0.1649 and -0.08879 and 0.2113 and -0.2385 and -0.6593 and -0.4375 and -0.5166 and -0.9554
[1]; log [agonist] (M) -4.95424
  IP1 accumulation, dose-response (Figure 1a): 0.553 and 0.2642 and 0.3806 and 0.3517 and 0.05455 and 0.247 and 0.3525 and -0.3352 and -0.4263 and -0.5038 and 0.5136 and -0.7508
[1]; log [agonist] (M) -5.90849
  IP1 accumulation, dose-response (Figure 1a): 0.1227 and 0.5487 and 0.6873 and 0.2386 and 0.02519 and 0.3705 and 0.5521 and -0.1483 and -0.4243 and -0.2808 and 0.06832 and -0.3071
[1]; log [agonist] (M) -6.86273
  IP1 accumulation, dose-response (Figure 1a): 0.3536 and 0.9227 and 0.8938 and 0.5392 and 0.2564 and 0.9514 and 0.9872 and 0.3929 and 0.5666 and 0.2655 and 0.4716 and 0.3728
[1]; log [DCA] (M) -4
  IP1 accumulation: 1.182 and 0.9551 and 1.627
[1]; log [DCA] (M) -5.39794
  IP1 accumulation: 0.3631 and 0.268 and 0.3023
MRGPRX4 + RAMP2; ratio MRGPRX4:RAMP2 1:0.25
  activation at 20 µM: 59.5%
  activation at 4 µM: 39%
  activation at 0.8 µM: 28.2%
  activation at […]: 28.2%
  activation at 0.032 µM: 29.4%
MRGPRX4 + RAMP2; ratio MRGPRX4:RAMP2 1:0.5
  activation at 20 µM: 51.9%
  activation at 4 µM: 28.9%
  activation at 0.8 µM: 21.9%
  activation at […]: 21.5%
MRGPRX4 + RAMP2; ratio MRGPRX4:RAMP2 1:1
  activation at 100 µM: 56.6%
  activation at 20 µM: 35%
  activation at 0.8 µM: 13.8%
  activation at […]: 13.1%
  activation at 0.032 µM: 13.2%
MRGPRX4 + RAMP2; ratio MRGPRX4:RAMP2 1:2
  activation at 100 µM: 20.6%
  activation at 20 µM: 10.3%
  activation at 4 µM: 5.86%
  activation at […]: 6.3%
  activation at 0.032 µM: 5.62%
MRGPRX4 + RAMP2; Figure 4c-f, agonist 100µM, X4:ramp2 1:0.25, MRGPRX4 = 100
  response to agonist, X4:ramp2.I:0.25: 82.2333 and 78.588
MRGPRX4 + RAMP2; Figure 4c-f, agonist 100µM, X4:ramp2 1:0.5, MRGPRX4 = 100
  response to agonist, X4:ramp2.I:0.5: 59.4831 and 67.5869
MRGPRX4 + RAMP2; Figure 4c-f, agonist 100µM, X4:ramp2 1:1, MRGPRX4 = 100
  response to agonist, X4:ramp2.I:1: 42.5729 and 40.2351
MRGPRX4 + RAMP2; Figure 4c-f, agonist 100µM, X4:ramp2 1:2, MRGPRX4 = 100
  response to agonist, X4:ramp2.I:2: 19.2213 and 20.608
MRGPRX4 + RAMP2; [3]
  IP1 Basal: 22.40
  IP1 span (Emax minus basal): 84.8%
  Emax: 107%
MRGPRX4 + RAMP2; [4]
  IP1 Basal: 17.50
  IP1 span (Emax minus basal): 77%
  Emax: 94.5%
MRGPRX4 + RAMP2; MRGPRX4 + RAMP2 1 pg (Fig. S3)
  IP1 Basal: 11.18
  IP1 span (Emax minus basal): 45%
